Test results published in patent US12281363B2, “Methods for detecting antiviral-drug resistant virus” (Secretary of State for Health and Social Care, priority 2018, dated 2025).
Where two headings read alike, the source gives them in different places.

Tested on: HSV-1
Assay: Plaque reduction assay, HSV-1 clinical isolates on Vero cells
Format: cell-based
Settings: Human alphaherpesvirus 1, Vero
From the text: Viral isolates were used to infect a sub-confluent monolayer of Vero cells at a concentration of 75 or 50 plaque forming units (PFU) per well for HSV-1 and HSV-2, respectively. […] CMC medium typically used to create a semisolid interface and prevents indiscrimate viral spreading. Other materials (e.g. agar) may also be used to create this interface.
Cells were fixed with 10% formalin and stained with crystal violet before enumeration of the plaques (microscopic observation or use of fluorescent antibodies for detection is also suitable). The data obtained from these experiments were then expressed as percent inhibition of viral infectivity relative to the no drug control.
Definitions of phenotypic drug susceptibility classification as sensitive or resistant were as follows: ACV, <3 μM or >40 μM; PCV, <10 μM or >40 μM; CDV, <24 μM or >30 μM; FOS, <250 μM or >400 μM; and ACV, <6.5 μM or >40 μM; PCV, <38 μM or >40 μM; FOS, <250 μM or >400 μM for HSV-1 and HSV-2, respectively. Any IC50 values falling in between these sensitive and resistant cut-offs were reported as intermediate resistance.
The phenotype (i.e. reactivity to a drug) of the virus was characterised by the plaque reduction assay as described above.

O=C(O)P(=O)(O)O [Foscarnet, foscarnet]
IC50 (72 h, isolate HPG053, HSV-1 pol L802R + A834S (2405T>G, 2500G>T), also TK R176W, read-out: Drug susceptibility (IC50 value)): 626 µM
IC50 (isolate HPG002, HSV-1 pol E992K (2974G>A), also TK insert (G) nt 430-436, pol A1169T, read-out: Drug susceptibility (IC50 value)): < 50 µM
IC50 (isolate HPG002, HSV-1 pol E992K (2974G>A), also TK insert (G) nt 430-436, pol A1169T, read-out: Drug susceptibility Foscarnet (FOS)): < 250 µM
IC50 (isolate HPG003, HSV-1 TK Y172S (515A>C), read-out: Drug susceptibility (IC50 value)): 79 µM
IC50 (isolate HPG003, HSV-1 TK Y172S (515A>C), read-out: Drug susceptibility Foscarnet (FOS)): < 250 µM
IC50 (isolate HPG005, HSV-1 TK A37V (110C>T), read-out: Drug susceptibility (IC50 value)): 36.9 µM
IC50 (isolate HPG005, HSV-1 TK A37V (110C>T), read-out: Drug susceptibility Foscarnet (FOS)): < 250 µM
IC50 (isolate HPG008, HSV-1 TK V204G (611T>G), read-out: Drug susceptibility (IC50 value)): 58.3 µM
IC50 (isolate HPG008, HSV-1 TK V204G (611T>G), read-out: Drug susceptibility Foscarnet (FOS)): < 250 µM
IC50 (isolate HPG009, HSV-1 pol E992K (2974G>A), also pol A1169T, read-out: Drug susceptibility (IC50 value)): 77.5 µM
IC50 (isolate HPG009, HSV-1 pol E992K (2974G>A), also pol A1169T, read-out: Drug susceptibility Foscarnet (FOS)): < 250 µM
IC50 (isolate HPG010, HSV-1 TK Q125* (373C>T), read-out: Drug susceptibility (IC50 value)): 46.7 µM
IC50 (isolate HPG010, HSV-1 TK Q125* (373C>T), read-out: Drug susceptibility Foscarnet (FOS)): < 250 µM
IC50 (isolate HPG011, HSV-1 TK Q125* (373C>T), read-out: Drug susceptibility (IC50 value)): 56 µM
IC50 (isolate HPG011, HSV-1 TK Q125* (373C>T), read-out: Drug susceptibility Foscarnet (FOS)): < 250 µM
IC50 (isolate HPG013, HSV-1 TK M121I (363G>A), read-out: Drug susceptibility (IC50 value)): 78 µM
IC50 (isolate HPG013, HSV-1 TK M121I (363G>A), read-out: Drug susceptibility Foscarnet (FOS)): < 250 µM
IC50 (isolate HPG013, HSV-1 pol D83A (248A>C), also TK M121I, pol A1169T, read-out: Drug susceptibility (IC50 value)): 78 µM
IC50 (isolate HPG013, HSV-1 pol D83A (248A>C), also TK M121I, pol A1169T, read-out: Drug susceptibility Foscarnet (FOS)): < 250 µM
IC50 (isolate HPG014, HSV-1 pol A1115T (3343G>A), read-out: Drug susceptibility (IC50 value)): 141 µM
IC50 (isolate HPG014, HSV-1 pol A1115T (3343G>A), read-out: Drug susceptibility Foscarnet (FOS)): < 250 µM
IC50 (isolate HPG014, HSV-1 pol R993C (2977C>T), read-out: Drug susceptibility (IC50 value)): 141 µM
IC50 (isolate HPG014, HSV-1 pol R993C (2977C>T), read-out: Drug susceptibility Foscarnet (FOS)): < 250 µM
IC50 (isolate HPG014, HSV-1 pol T54A (160A>G), read-out: Drug susceptibility (IC50 value)): 141 µM
IC50 (isolate HPG014, HSV-1 pol T54A (160A>G), read-out: Drug susceptibility Foscarnet (FOS)): < 250 µM
IC50 (isolate HPG015, HSV-1 pol 966stop or F965_I966insF (2892_2893insT to 2895_2896insT), read-out: Drug susceptibility (IC50 value)): 162 µM
IC50 (isolate HPG015, HSV-1 pol 966stop or F965_I966insF (2892_2893insT to 2895_2896insT), read-out: Drug susceptibility Foscarnet (FOS)): < 250 µM
IC50 (isolate HPG018, HSV-1 TK frameshift (881delC to 885delC), read-out: Drug susceptibility (IC50 value)): 66.7 µM
IC50 (isolate HPG018, HSV-1 TK frameshift (881delC to 885delC), read-out: Drug susceptibility Foscarnet (FOS)): < 250 µM
IC50 (isolate HPG018, HSV-1 pol P1199T (3595C>A), also TK deletion (C) nt 881-885, pol A1169T, read-out: Drug susceptibility (IC50 value)): 66.7 µM
IC50 (isolate HPG018, HSV-1 pol P1199T (3595C>A), also TK deletion (C) nt 881-885, pol A1169T, read-out: Drug susceptibility Foscarnet (FOS)): < 250 µM
IC50 (isolate HPG019, HSV-1 pol K750T (2249A>C), also TK deletion (G) nt 430-436, pol A1169T, read-out: Drug susceptibility (IC50 value)): 190 µM
IC50 (isolate HPG019, HSV-1 pol K750T (2249A>C), also TK deletion (G) nt 430-436, pol A1169T, read-out: Drug susceptibility Foscarnet (FOS)): < 250 µM
IC50 (isolate HPG020, HSV-1 pol S911N (2732G>A), also pol A1169T, read-out: Drug susceptibility (IC50 value)): 99.3 µM
IC50 (isolate HPG020, HSV-1 pol S911N (2732G>A), also pol A1169T, read-out: Drug susceptibility Foscarnet (FOS)): < 250 µM
IC50 (isolate HPG021, HSV-1 pol R681Q (2042G>A), also TK deletion (G) nt 430-436, read-out: Drug susceptibility (IC50 value)): 156 µM
IC50 (isolate HPG021, HSV-1 pol R681Q (2042G>A), also TK deletion (G) nt 430-436, read-out: Drug susceptibility Foscarnet (FOS)): < 250 µM
IC50 (isolate HPG021, HSV-1 pol T839A (2515A>G), also TK deletion (G) nt 430-436, read-out: Drug susceptibility (IC50 value)): 156 µM
IC50 (isolate HPG021, HSV-1 pol T839A (2515A>G), also TK deletion (G) nt 430-436, read-out: Drug susceptibility Foscarnet (FOS)): < 250 µM
IC50 (isolate HPG025, HSV-1 pol E850Q (2548G>C), also TK R216C, read-out: Drug susceptibility (IC50 value)): 99.1 µM
IC50 (isolate HPG025, HSV-1 pol E850Q (2548G>C), also TK R216C, read-out: Drug susceptibility Foscarnet (FOS)): < 250 µM
IC50 (isolate HPG026, HSV-1 pol E850Q (2548G>C), also TK R216C, pol A1169T, read-out: Drug susceptibility (IC50 value)): 68.3 µM
IC50 (isolate HPG026, HSV-1 pol E850Q (2548G>C), also TK R216C, pol A1169T, read-out: Drug susceptibility Foscarnet (FOS)): < 250 µM
IC50 (isolate HPG027, HSV-1 TK V204G (611T>G), also pol S914L, A1169AT, read-out: Drug susceptibility (IC50 value)): 216 µM
IC50 (isolate HPG027, HSV-1 TK V204G (611T>G), also pol S914L, A1169AT, read-out: Drug susceptibility Foscarnet (FOS)): < 250 µM
IC50 (isolate HPG027, HSV-1 pol S914L (2741C>T), also TK V204G, pol A1169T, read-out: Drug susceptibility (IC50 value)): 216 µM
IC50 (isolate HPG027, HSV-1 pol S914L (2741C>T), also TK V204G, pol A1169T, read-out: Drug susceptibility Foscarnet (FOS)): < 250 µM
IC50 (isolate HPG029, HSV-1 TK Y172S (515A>C), read-out: Drug susceptibility (IC50 value)): 111 µM
IC50 (isolate HPG029, HSV-1 TK Y172S (515A>C), read-out: Drug susceptibility Foscarnet (FOS)): < 250 µM
IC50 (isolate HPG031, HSV-1 pol E1120A (3359A>C), also a TK resistance mutation (footnote e), read-out: Drug susceptibility (IC50 value)): 108 µM
IC50 (isolate HPG031, HSV-1 pol E1120A (3359A>C), also a TK resistance mutation (footnote e), read-out: Drug susceptibility Foscarnet (FOS)): < 250 µM
IC50 (isolate HPG031, HSV-1 pol G139R (415G>C or 415G>A), also a TK resistance mutation (footnote e), read-out: Drug susceptibility (IC50 value)): 108 µM
IC50 (isolate HPG031, HSV-1 pol G139R (415G>C or 415G>A), also a TK resistance mutation (footnote e), read-out: Drug susceptibility Foscarnet (FOS)): < 250 µM
IC50 (isolate HPG032, HSV-1 TK 183* (437_438insA), read-out: Drug susceptibility (IC50 value)): 100 µM
IC50 (isolate HPG032, HSV-1 TK 183* (437_438insA), read-out: Drug susceptibility Foscarnet (FOS)): < 250 µM
